Source: paper PMC10216263, “Favorable Preclinical Pharmacological Profile of a Novel Antimalarial Pyrrolizidinylmethyl Derivative of 4-amino-7-chloroquinoline with Potent In Vitro and In Vivo Activities” (Biomolecules, 2023)

Tests used:
[1] = Blood to plasma partitioning; assay type: in vitro ADME; details: male, whole blood, human blood, up to 30 min
Protocol: Plasma protein binding was performed via ultrafiltration (30,000 D cutoff, Amicon, Merck) with heparinized blood samples (male SD rats, Charles River Italy, and male Beagle dogs, Marshall Farms, Europe, Lyon, France) and fresh and frozen heparinized human blood samples collected from fasted healthy male subjects (at least two subjects for plasma samples), were supplied by AAI, Germany. MG3 final concentrations of 100, 300 and 1000 ng/mL were prepared using a 10 mg/mL stock solution while control samples at the same concentrations diluted in DPBS buffer (Dulbecco’s Phosphate Buffered Saline, Sigma-Aldrich) to evaluate the recovery. […] The percentage of bound drug (% Fbound) and of unbound drug (% Ffree) was determined using the following equations: % Fbound = [(Conc. Total–Conc. Free)/Conc. […] Total is the compound concentration determined in plasma and Conc. Free is the compound concentration determined in the ultrafiltrated samples. Results were expressed as % of binding and % of free fraction (single values and mean ± SD). […] Blood to plasma ratio was calculated as: Conc. in blood/Conc. in plasma; where, Conc. is the compound concentration determined in blood and in plasma at the same time of incubation.

P. yoelii NS = assay: Four-day suppressive Peters' test, oral; assay type: in vivo, P. yoelii in CD1 mice; details: once a day for 4 days, parasitemia day 4, CD1 mice
Protocol: Groups of five CD1 mice were inoculated i.v., with 4 × 10^6 infected erythrocytes/mice. Compounds, dissolved in standard suspending formula (SSV) (0.5% sodium carboxymethylcellulose, 0.5% benzyl alcohol, 0.4% Tween 80, and 0.9% NaCl), were administered once a day for 4 days via oral gavage, starting two hours post-infection. […] Parasitemia was evaluated using microscopic examination of Giemsa-stained blood films taken on day four, processed using MICROSOFT® EXCEL spreadsheets (Microsoft Corp., Redmond, WA, USA), and expressed as percentages of inhibition from the arithmetic mean parasitemia of each group in relation to the untreated group. ED50 and ED90 values were calculated using GraphPad Prism 6 (GraphPad Software Inc., La Jolla, CA, USA).

P. vivax field isolates = assay: Chemosensitivity assay on field isolates; assay type: cell-based
Protocol: The 10 P. vivax and 10 P. falciparum isolates used in this study were obtained from Mae Sod District, Tak Province, Thailand. […] Isolates were collected in 5 mL lithium-heparinized tubes and sent to the laboratory within 5–6 h.

[2] = tested on: P. falciparum FCR3 (CQ-R); assay: In vitro antimalarial activity, [3H]-hypoxanthine incorporation (LSHTM); assay type: cell-based; details: Plasmodium falciparum, FCR3; 72 h, [3H]-hypoxanthine incorporation, mean of 3 experiments; read-out: P. falciparum IC50 nM, FCR3 (CQ-R)
P. berghei ANKA = assay: Oral curative activity against P. berghei ANKA; assay type: in vivo, P. berghei in mice
[3] = tested on: Salmonella typhimurium TA98; assay: Bacterial Reverse Mutation Assay; details: TA 98, with metabolic activation
Protocol: using the preincubation method (30 min, 37°C) with and without phenobarbital-5,6-benzoflavone induced
MG3 was dissolved in distilled water (H2O) at
the maximum concentration of 40 mg/mL and tested in a preliminary range-finding test in all strains of
metabolic activation to determine the toxicity of the compound.

[4] = tested on: P. falciparum TM90C2A (CQ-R); assay: In vitro antimalarial activity, [3H]-hypoxanthine incorporation (LSHTM); assay type: cell-based; details: Plasmodium falciparum, 72 h, [3H]-hypoxanthine incorporation, mean of 3 experiments, read-out: P. falciparum IC50 nM, TM90C2A (CQ-R)

## Clc1ccc2c(NCC34CCCN3CCC4)ccnc2c1 [MG3, 7-Chloro-N-((hexahydro-1H-pyrrolizin-7a-yl)methyl)quinolin-4-amine]
[1]
  blood plasma ratio at 300 ng/mL: ~1
P. yoelii NS; Plasmodium yoelii, 96 h, read-out: ED50 (95% CI) Mean
  ED50: 5.01 mg/kg
P. yoelii NS
  ED90 (95% CI) Mean: 8.98 (6.70–12.02) mg/kg
P. vivax field isolates; P. vivax isolates
  IC50 lower than that of CQ: 40%
P. vivax field isolates; Plasmodium vivax, read-out: P. vivax IC50 nM, Field Isolates
  IC50: 50.3 nM
[2]
  IC50: 13.2 nM
P. berghei ANKA; 30 mg/kg for 3 times
  prolonged mice survival compared to CQ, amodiaquine or artesunate: approximately 50%
P. berghei ANKA; 30 mg/kg for 3 times, P. berghei-infected mice
  curative activity: not curative
P. berghei ANKA; oral dose 3 x 30 mg/kg
  % Suppression of parasitaemia (on day 4 post infection): 100%
P. berghei ANKA; oral dose 3 x 30 mg/kg, individual values in brackets
  Average survival (days) after infection: 22 (17, 23, 23, 24, 24) days
[3]; I° Exp., 1000 µg/plate
  fold increase value (ratio treated/solvent revertant numbers): 1.1
[3]; I° Exp., 62.5 g/plate
  fold increase value (ratio treated/solvent revertant numbers): 1.1
[3]; I° Exp., 125 g/plate
  fold increase value (ratio treated/solvent revertant numbers): 1.2
[3]; I° Exp., 250 g/plate
  fold increase value (ratio treated/solvent revertant numbers): 1.4
[3]; I° Exp., 500 g/plate
  fold increase value (ratio treated/solvent revertant numbers): 1.5
[3]; Range finding, 1000 µg/plate
  fold increase value (ratio treated/solvent revertant numbers): 1.0
[3]; Range finding, 1.95 g/plate
  fold increase value (ratio treated/solvent revertant numbers): 0.9
[3]; Range finding, 3.9 g/plate
  fold increase value (ratio treated/solvent revertant numbers): 0.9
[3]; Range finding, 7.81 g/plate
  fold increase value (ratio treated/solvent revertant numbers): 1.5
[3]; Range finding, 15.63 g/plate
  fold increase value (ratio treated/solvent revertant numbers): 1.2
[3]; Range finding, 31.25 g/plate
  fold increase value (ratio treated/solvent revertant numbers): 1.0
[3]; Range finding, 62.5 g/plate
  fold increase value (ratio treated/solvent revertant numbers): 1.3
[3]; Range finding, 125 g/plate
  fold increase value (ratio treated/solvent revertant numbers): 1.3
[3]; Range finding, 250 g/plate
  fold increase value (ratio treated/solvent revertant numbers): 1.2
[3]; Range finding, 500 g/plate
  fold increase value (ratio treated/solvent revertant numbers): 1.2
[4]
  IC50: 14.4 nM
